Reference: US7838556B2 (priority 2006, dated 2010)
Where a name gives a salt, the structure may show the parent alone. Read-outs that look alike come from different tables or passages of the source.

Assays:
[1] = biological target: Melatonin, Non-selective; format: binding
[2] = biological target: T1, GHB receptors (GHB sites) (Rattus norvegicus, UniProt P11275); settings: cited from earlier work
[3] = tested on: GABAA receptors; settings: cited from earlier work
[4] = biological target: Sodium, Site 2; format: binding
[5] = biological target: Adrenergic, Beta, Non-selective; format: binding
[6] = biological target: Muscarinic, Non-selective, Peripheral; format: binding
[7] = biological target: Muscarinic, Non-selective, Central; format: binding
[8] = tested on: GABA receptors; settings: cited from earlier work
[9] = biological target: T2, GABAB receptors (Rattus norvegicus, UniProt Q9Z0U4); settings: cited from earlier work
T2 sequence (O88871 41-940): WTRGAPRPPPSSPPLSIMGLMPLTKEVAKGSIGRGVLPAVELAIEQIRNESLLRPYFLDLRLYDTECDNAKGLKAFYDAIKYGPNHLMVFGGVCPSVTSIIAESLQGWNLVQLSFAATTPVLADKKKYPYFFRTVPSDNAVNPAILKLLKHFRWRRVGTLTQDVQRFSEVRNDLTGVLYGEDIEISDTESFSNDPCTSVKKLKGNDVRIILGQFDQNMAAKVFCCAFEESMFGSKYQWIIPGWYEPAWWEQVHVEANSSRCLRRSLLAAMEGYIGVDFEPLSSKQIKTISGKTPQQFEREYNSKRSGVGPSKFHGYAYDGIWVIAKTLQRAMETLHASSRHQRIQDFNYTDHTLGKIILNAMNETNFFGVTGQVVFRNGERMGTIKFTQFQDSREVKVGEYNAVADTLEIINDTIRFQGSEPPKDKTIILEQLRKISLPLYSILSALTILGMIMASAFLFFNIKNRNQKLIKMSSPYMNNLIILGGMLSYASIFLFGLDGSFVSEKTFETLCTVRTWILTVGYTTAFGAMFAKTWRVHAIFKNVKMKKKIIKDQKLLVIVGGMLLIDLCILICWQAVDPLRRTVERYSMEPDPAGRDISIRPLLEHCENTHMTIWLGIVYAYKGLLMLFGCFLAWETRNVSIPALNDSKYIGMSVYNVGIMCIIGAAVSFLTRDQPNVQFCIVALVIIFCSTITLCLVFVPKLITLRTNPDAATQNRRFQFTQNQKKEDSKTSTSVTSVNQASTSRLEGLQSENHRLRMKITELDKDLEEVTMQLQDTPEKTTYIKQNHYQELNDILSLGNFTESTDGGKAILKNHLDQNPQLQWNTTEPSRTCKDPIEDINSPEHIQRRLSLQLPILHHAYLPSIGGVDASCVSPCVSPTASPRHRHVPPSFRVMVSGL
T2 sequence (Q9Z0U4 17-960): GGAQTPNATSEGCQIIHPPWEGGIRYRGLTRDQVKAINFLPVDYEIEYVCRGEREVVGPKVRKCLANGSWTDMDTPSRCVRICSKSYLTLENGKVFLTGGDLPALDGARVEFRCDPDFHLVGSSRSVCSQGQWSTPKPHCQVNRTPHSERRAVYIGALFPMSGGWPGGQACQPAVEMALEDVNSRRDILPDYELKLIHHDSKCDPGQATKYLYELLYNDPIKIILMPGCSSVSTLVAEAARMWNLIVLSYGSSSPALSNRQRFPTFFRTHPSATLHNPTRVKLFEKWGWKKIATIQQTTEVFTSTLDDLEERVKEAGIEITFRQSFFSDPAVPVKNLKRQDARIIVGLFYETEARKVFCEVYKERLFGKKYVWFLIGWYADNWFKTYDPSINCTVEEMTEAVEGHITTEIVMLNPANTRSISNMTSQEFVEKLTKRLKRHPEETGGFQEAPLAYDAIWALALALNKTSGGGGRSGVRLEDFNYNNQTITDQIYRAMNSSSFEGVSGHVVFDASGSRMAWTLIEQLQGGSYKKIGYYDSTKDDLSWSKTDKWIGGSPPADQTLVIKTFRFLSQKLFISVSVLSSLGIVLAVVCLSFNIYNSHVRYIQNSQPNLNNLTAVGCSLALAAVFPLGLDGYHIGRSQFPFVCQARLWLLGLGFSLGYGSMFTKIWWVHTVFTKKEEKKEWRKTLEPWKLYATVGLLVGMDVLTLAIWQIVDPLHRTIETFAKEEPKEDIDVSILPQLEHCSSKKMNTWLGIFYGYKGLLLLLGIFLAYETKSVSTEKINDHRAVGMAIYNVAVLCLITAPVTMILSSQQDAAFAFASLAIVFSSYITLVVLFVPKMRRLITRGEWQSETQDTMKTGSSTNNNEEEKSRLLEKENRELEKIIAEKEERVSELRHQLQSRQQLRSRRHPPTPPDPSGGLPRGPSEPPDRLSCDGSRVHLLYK

[10] = biological target: T2, GABAB receptors; format: binding
[11] = tested on: GABAA receptors; format: binding, rat
[12] = tested on: Adrenergic, Alpha 1, Non-selective; format: binding
[13] = tested on: Calcium Channel, Type L (Dihydropyridine Site); format: binding
[14] = biological target: Potassium Channel, I[Kr] (hERG) (hr) (Homo sapiens, UniProt Q12809)
Potassium Channel, I[Kr] (hERG) (hr), sequence (Q12809 whole entry): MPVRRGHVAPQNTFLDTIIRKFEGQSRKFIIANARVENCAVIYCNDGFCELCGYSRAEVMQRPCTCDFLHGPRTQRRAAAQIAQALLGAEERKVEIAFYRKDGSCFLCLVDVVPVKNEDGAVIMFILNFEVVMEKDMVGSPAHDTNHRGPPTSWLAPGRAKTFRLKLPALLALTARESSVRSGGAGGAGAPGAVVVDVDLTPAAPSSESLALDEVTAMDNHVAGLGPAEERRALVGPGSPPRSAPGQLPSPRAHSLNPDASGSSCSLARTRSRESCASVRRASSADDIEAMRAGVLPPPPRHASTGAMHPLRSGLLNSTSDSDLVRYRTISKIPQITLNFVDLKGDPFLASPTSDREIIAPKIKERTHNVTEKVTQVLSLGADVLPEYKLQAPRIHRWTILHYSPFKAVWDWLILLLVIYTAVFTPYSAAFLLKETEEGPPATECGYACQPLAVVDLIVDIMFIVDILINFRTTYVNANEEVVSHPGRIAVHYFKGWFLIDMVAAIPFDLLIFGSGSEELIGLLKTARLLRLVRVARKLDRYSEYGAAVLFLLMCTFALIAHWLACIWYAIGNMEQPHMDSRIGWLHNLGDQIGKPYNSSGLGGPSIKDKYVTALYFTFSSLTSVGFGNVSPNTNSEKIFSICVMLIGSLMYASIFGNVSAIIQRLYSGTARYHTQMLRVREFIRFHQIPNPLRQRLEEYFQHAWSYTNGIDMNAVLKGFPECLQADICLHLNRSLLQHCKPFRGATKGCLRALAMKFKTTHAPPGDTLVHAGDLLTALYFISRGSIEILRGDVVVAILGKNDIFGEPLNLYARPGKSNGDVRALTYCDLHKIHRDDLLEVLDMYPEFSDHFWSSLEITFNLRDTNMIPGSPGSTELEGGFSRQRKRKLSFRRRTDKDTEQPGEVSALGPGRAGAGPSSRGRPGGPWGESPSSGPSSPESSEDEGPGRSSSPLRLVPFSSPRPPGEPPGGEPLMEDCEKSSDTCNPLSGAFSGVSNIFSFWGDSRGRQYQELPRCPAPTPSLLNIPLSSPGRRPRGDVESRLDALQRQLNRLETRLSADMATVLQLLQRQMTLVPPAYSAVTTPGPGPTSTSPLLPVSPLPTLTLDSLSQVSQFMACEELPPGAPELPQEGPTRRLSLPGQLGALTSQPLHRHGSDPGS

[15] = tested on: Sigma, Non-selective; format: binding
[16] = tested on: GABA receptors; format: binding, rat
[17] = tested on: Calcium Channel, Type L (Benzothiazepine Site); format: binding
[18] = tested on: Dopamine, Non-selective; format: binding
[19] = tested on: Adrenergic, Alpha 2, Non-selective; format: binding
[20] = tested on: GABA, Non-Selective; format: binding
[21] = tested on: Adenosine, Non-selective; format: binding
[22] = biological target: Potassium Channel, ATP-Sensitive (Rattus norvegicus, UniProt Q09429); format: binding
[23] = tested on: Opiod, Non-selective; format: binding
[24] = tested on: GABA, Chloride, TBOB Site; format: binding
[25] = biological target: Calcium Channel, Type N (Homo sapiens, UniProt Q00975); format: binding
[26] = tested on: Serotonin, Non-selective; format: binding
[27] = biological target: T1, GHB receptors (GHB sites); format: binding
[28] = biological target: Calcium Channel, Type L (Dihydropyridine Site); settings: cited from earlier work

T1 sequence (P11275 whole entry): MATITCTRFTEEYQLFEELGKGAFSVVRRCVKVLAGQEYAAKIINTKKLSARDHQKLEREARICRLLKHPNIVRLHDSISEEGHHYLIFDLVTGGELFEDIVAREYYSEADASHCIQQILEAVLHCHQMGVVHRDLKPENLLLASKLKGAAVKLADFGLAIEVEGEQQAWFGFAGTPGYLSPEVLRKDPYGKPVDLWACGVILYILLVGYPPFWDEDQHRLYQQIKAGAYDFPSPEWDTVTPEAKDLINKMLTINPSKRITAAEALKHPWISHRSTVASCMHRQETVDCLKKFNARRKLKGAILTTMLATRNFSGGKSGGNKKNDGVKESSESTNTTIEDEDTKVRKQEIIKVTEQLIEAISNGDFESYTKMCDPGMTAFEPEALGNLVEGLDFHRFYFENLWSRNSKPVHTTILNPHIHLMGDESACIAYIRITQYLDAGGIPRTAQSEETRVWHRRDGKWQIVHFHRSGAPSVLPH

O=C(O)Cc1cccc(O)c1 [3-hydroxyphenylacetic acid]
affinity at GHB receptors compared with GHB [2]: greater affinity than GHB
Percent displacement of [3H]GABA at 1 Mm, GABAA [3]: 44%

CCN1C[C@]2(COC)[C@H](O)C[C@H](OC)[C@@]34[C@@H]5C[C@@]6(O)[C@H](OC(=O)c7ccccc7)[C@@H]5[C@@](OC(C)=O)([C@@H]([C@H](OC)[C@H]23)[C@@H]14)[C@@H](O)[C@@H]6OC [Aconitine, reference compound]
Ki ([4]; read-out: Ki (M) Ref. Cpd.): 6.67e-07 M

C=CCc1ccccc1OCC(O)CNC(C)C (stereo not drawn) [Alprenolol HCl, reference compound]
Ki ([5]; read-out: Ki (M) Ref. Cpd.): 3.33e-09 M

CN1[C@@H]2CC[C@H]1C[C@@H](OC(=O)C(CO)c1ccccc1)C2 (stereo partly drawn) [Atropine sulfate, reference compound]
Ki ([6]; read-out: Ki (M) Ref. Cpd.): 5.8e-10 M
Ki ([7]; read-out: Ki (M) Ref. Cpd.): 1.26e-10 M

O=C(O)CCCO [Compound 1, Gamma-hydroxybutyric acid]
affinity for GABA receptors [8]: weak affinity
Percent displacement of [3H]GABA at 1 Mm, GABAA [3]: 35.5 ± 3.7%
Percent displacement of [3H]GABA at 1 Mm, GABAB [9]: 41.1 ± 3.1%

O=C(O)Cc1cccc(O)c1 [Compound 7, 3-hydroxyphenylacetic acid]
affinity for GABA receptors [8]: weak affinity
Percent displacement of [3H]GABA at 1 Mm, GABAA [3]: 44.2 ± 2.0%
Percent displacement of [3H]GABA at 1 Mm, GABAB [9]: 14.0 ± 4.0%

O=C(O)CCCOc1ccccc1 [Compound 8, reference compound]
Percent displacement of [3H]GABA at 1 Mm, GABAB [10]: 6.5 ± 1.0%
Percent displacement of [3H]GABA at 1 Mm, GABAA [11]: 6.3 ± 1.7%

O=C(O)Cc1cccc(OCCc2ccccc2)c1 [Compound 10, phenethyl ether of 3-hydroxyphenylacetic acid]
Activity [12]: No (key: No: Activity = greater than or equal to 50% Inhibition of binding)
Percent Inhibition (Average; N = 2) [12]: −10.77%
Activity [13]: No (key: No: Activity = greater than or equal to 50% Inhibition of binding)
Percent Inhibition (Average; N = 2) [13]: 14.52%
Activity [4]: No (key: No: Activity = greater than or equal to 50% Inhibition of binding)
Percent Inhibition (Average; N = 2) [4]: 10.18%
Activity [6]: No (key: No: Activity = greater than or equal to 50% Inhibition of binding)
Percent Inhibition (Average; N = 2) [6]: −0.77%
Activity [14]: No (key: No: Activity = greater than or equal to 50% Inhibition of binding)
Percent Inhibition (Average; N = 2) ([14]; human): −11.94%
Activity [15]: No (key: No: Activity = greater than or equal to 50% Inhibition of binding)
Percent Inhibition (Average; N = 2) [15]: 4.30%
affinity at GABA receptors / displacement of [3H]GABA compared with 3-hydroxyphenylacetic acid [16]: decreased affinity
Activity [5]: No (key: No: Activity = greater than or equal to 50% Inhibition of binding)
Percent Inhibition (Average; N = 2) [5]: 43.67%
Activity [17]: No (key: No: Activity = greater than or equal to 50% Inhibition of binding)
Percent Inhibition (Average; N = 2) [17]: 9.41%
Activity [18]: No (key: No: Activity = greater than or equal to 50% Inhibition of binding)
Percent Inhibition (Average; N = 2) [18]: 14.51%
Activity [19]: No (key: No: Activity = greater than or equal to 50% Inhibition of binding)
Percent Inhibition (Average; N = 2) [19]: 0.21%
Activity [20]: No (key: No: Activity = greater than or equal to 50% Inhibition of binding)
Percent Inhibition (Average; N = 2) [20]: 10.28%
Activity [21]: No (key: No: Activity = greater than or equal to 50% Inhibition of binding)
Percent Inhibition (Average; N = 2) [21]: −3.45%
Activity [7]: No (key: No: Activity = greater than or equal to 50% Inhibition of binding)
Percent Inhibition (Average; N = 2) [7]: 6.98%
Activity [22]: No (key: No: Activity = greater than or equal to 50% Inhibition of binding)
Percent displacement of [3H]GABA at 1 Mm, GABAB [10]: −1.2 ± 7.3%
Percent displacement of [3H]GABA at 1 Mm, GABAA [11]: 15.1 ± 7.5%
Activity [23]: No (key: No: Activity = greater than or equal to 50% Inhibition of binding)
Percent Inhibition (Average; N = 2) [23]: 0.09%
Activity [24]: No (key: No: Activity = greater than or equal to 50% Inhibition of binding)
Percent Inhibition (Average; N = 2) [24]: −15.01%
Activity [25]: No (key: No: Activity = greater than or equal to 50% Inhibition of binding)
Percent Inhibition (Average; N = 2) [25]: −2.31%
Activity [26]: No (key: No: Activity = greater than or equal to 50% Inhibition of binding)
Percent Inhibition (Average; N = 2) [26]: −1.83%
Activity [1]: No (key: No: Activity = greater than or equal to 50% Inhibition of binding)
Percent Inhibition (Average; N = 2) [1]: 12.69%

O=C(O)Cc1cccc(OCc2ccccc2)c1 [Compound 11, benzyl ether of 3-hydroxyphenylacetic acid]
affinity at GABA receptors / displacement of [3H]GABA compared with 3-hydroxyphenylacetic acid [16]: lower extent
fold lower affinity for GHB receptors than 3-hydroxyphenylacetic acid [27]: 4 fold
Percent displacement of [3H]GABA at 1 Mm, GABAB [10]: −4.7 ± 4.7%
Percent displacement of [3H]GABA at 1 Mm, GABAA [11]: 11.0 ± 6.2%

O=C(O)Cc1cccc(Oc2ccccc2)c1 [Compound 12, phenyl ether of 3-hydroxyphenylacetic acid]
affinity at GABA receptors / displacement of [3H]GABA compared with 3-hydroxyphenylacetic acid [16]: decreased affinity
Percent displacement of [3H]GABA at 1 Mm, GABAB [10]: −5.5 ± 1.2%
Percent displacement of [3H]GABA at 1 Mm, GABAA [11]: 2.7 ± 0.5%

CCOC(=O)C1=C(C)NC(C)=C(C(=O)OC)C1c1cccc([N+](=O)[O-])c1 (stereo not drawn) [[3H]Nitrendipine]
Kd [28]: 0.2 nM
